The values that follow come from patent publication US5272152A, “Purinyl and pyrimidinyl tetrahydrofurans” (priority 1991, dated 1993).

In brackets after ≈: the same amount, converted by molar mass. Where two headings read alike, the source gives them in different places.

For one assay, the system named is VZV. Put plainly: VZV antiviral assay: plaque reduction in WI-38 cell culture monolayers. Type of assay: cell-based, varicella zoster virus, strain ELLEN. The following applies: Human alphaherpesvirus 3, 156 h; WI-38 cells; at least 50% plaque reduction vs virus controls; 6-7 days at 37° C.; read-out: ID50 VZV. Here is the method:
(§1) Assays were performed in cell culture systems to determine the concentrations of compounds that are effective in preventing several kinds of viral infections.
(§2) HSV-1 (herpes simplex virus type 1, strain Schooler), HSV-2 (herpes simplex virus type 2, strain 186), VZV (varicella zoster virus, strain ELLEN).
(§3) HSV-1, HSV-2, and VZV antiviral assays: Virus was adsorbed to WI-38 cell culture monolayers in 6 well culture plates (Costar, Cambridge, Mass.) for 1 hour prior to addition of maintenance medium containing duplicate dilutions of the test compound. Inhibition of plaque development was evaluated on fixed and stained monolayers after 4 days incubation at 37° C. for HSV-1 and HSV-2 and after 6-7 days incubation at 37° C. for VZV. ID50 values were determined from the drug concentration which conferred at least a 50% plaque reduction compared to virus controls (Table 1).

The next assay concerns HSV-1. Put plainly: HSV-1 antiviral assay: plaque reduction in WI-38 cell culture monolayers. It is filed as cell-based, herpes simplex virus type 1, strain Schooler. Conditions: read-out: ID50 HSV-1. Here is the method: as §1, §2, §3
In another assay the test system is HSV-2. Put plainly: HSV-2 antiviral assay: plaque reduction in WI-38 cell culture monolayers. It is filed as cell-based, herpes simplex virus type 2, strain 186. Conditions: read-out: ID50 HSV-2. Here is the method: as §1, §2, §3
[1] abbreviates: Human alphaherpesvirus 1, 96 h, WI-38 cells, at least 50% plaque reduction vs virus controls, 4 days at 37° C.
[2] abbreviates: Human alphaherpesvirus 2, 96 h, WI-38 cells, at least 50% plaque reduction vs virus controls, 4 days at 37° C.

As to `Nc1ccn([C@@H]2CO[C@H](CO)[C@H]2O)c(=O)n1` [[3R-(3α,4β,5α)]-4-Amino-1-[tetrahydro-4-hydroxy-5-(hydroxymethyl)-3-furanyl]-2(1H)-pyrimidinone], the IC50 with VZV is 25 to 50 mg/L (≈ 110 to 220 µM); in the assay with HSV-1 (Human alphaherpesvirus 1, WI-38, 96 h), greater than 100 mg/L; with HSV-2 (Human alphaherpesvirus 2, WI-38, 96 h) it was greater than 100 mg/L.

For the compound `Cc1cn([C@@H]2CO[C@H](CO)[C@H]2O)c(=O)[nH]c1=O` [[3R-(3α,4β,5α)]-5-Methyl-1-[tetrahydro-4-hydroxy-5-(hydroxymethyl)-3-furanyl]2,4(1H,3H)pyrimidinedione], the IC50 with VZV is greater than 100 mg/L; in the assay on HSV-1 (setting [1]) it was 10 mg/L (≈ 41.3 µM); in the assay on HSV-2 (setting [2]) it was greater than 100 mg/L.

For `Nc1nc2c(ncn2[C@@H]2CO[C@H](CO)[C@H]2O)c(=O)[nH]1`, the IC50 with VZV was 50 to 100 mg/L (≈ 187 to 374 µM); in the assay with HSV-1 (setting [1]), 2 to 5 mg/L (≈ 7.48 to 18.7 µM); in the assay on HSV-2 (setting [2]) it was 2 mg/L (≈ 7.48 µM).
